Target: lipoteichoic acid synthase (LtaS) (Staphylococcus aureus, UniProt Q2G093)
Assay: LTA polymerization in proteoliposomes with purified LtaS, anti-LTA blot
Type: biochemical

Chain of lipoteichoic acid synthase (LtaS) (Q2G093 whole entry): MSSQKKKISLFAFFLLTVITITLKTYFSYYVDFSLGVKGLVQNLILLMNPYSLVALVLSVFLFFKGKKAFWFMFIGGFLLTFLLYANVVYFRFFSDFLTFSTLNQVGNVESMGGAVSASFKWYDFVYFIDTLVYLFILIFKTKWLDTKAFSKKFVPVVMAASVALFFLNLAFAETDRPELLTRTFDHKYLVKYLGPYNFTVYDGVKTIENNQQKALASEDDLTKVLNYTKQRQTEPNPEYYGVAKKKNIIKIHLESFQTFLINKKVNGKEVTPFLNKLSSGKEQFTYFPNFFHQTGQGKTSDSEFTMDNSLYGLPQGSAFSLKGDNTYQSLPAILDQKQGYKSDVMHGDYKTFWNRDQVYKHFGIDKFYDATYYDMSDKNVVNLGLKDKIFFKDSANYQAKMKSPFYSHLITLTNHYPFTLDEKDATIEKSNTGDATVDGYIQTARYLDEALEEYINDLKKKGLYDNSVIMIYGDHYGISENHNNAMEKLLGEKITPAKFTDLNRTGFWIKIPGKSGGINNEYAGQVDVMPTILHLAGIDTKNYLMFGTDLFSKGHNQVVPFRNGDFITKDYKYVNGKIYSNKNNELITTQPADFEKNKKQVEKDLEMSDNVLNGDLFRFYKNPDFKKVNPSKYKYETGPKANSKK

Nc1c(/N=N/c2ccc(-c3ccc(/N=N/c4cc(S(=O)(=O)O)c5ccccc5c4N)cc3)cc2)cc(S(=O)(=O)O)c2ccccc12 [compound 1, Congo red]
IC50: ~2000 nM
